Data reported in patent publication US20120083522A1, “MODULATION OF INFLAMMATORY RESPONSES BY FACTOR XI” (Isis Pharmaceuitcals, inc., priority 2009, published 2012).
In the oligonucleotide strings, read from the 5' end, every base follows the letter of its sugar. An asterisk marks phosphorothioate; unmarked linkages are phosphodiester. Other units and linkages are bracketed, terminal groups are in braces. A string of capitals states the bases alone. e = 2'-O-(2-methoxyethyl) (MOE); [5mC] = 5-methylcytosine; d = 2'-deoxy (DNA)

What was measured:
human Factor XI mRNA = test: Antisense inhibition in HepG2 cells by microwalk gapmers, 8,000 nM, electroporation (Example 14); assay type: cell-based; conditions: HepG2 cells, 8,000 nM
Description: These microwalk gapmers were tested in vitro. Cultured HepG2 cells at a density of 20,000 cells per well were transfected using electroporation with 8,000 nM antisense oligonucleotide. After a treatment period of approximately 24 hours, RNA was isolated from the cells and Factor XI mRNA levels were measured by quantitative real-time PCR. Factor XI mRNA levels were adjusted according to total RNA content, as measured by RIBOGREEN. Results are presented as percent inhibition of Factor XI, relative to untreated control cells.
The chimeric antisense oligonucleotides in Table 51 were designed as 5-10-5 MOE, 5-8-5 and 6-8-6 MOE gapmers. The first two listed gapmers in Table 51 are the original gapmers (ISIS 416850 and ISIS 416858) from which ISIS 445493-445543 were designed via microwalk, and are designated by an asterisk. The 5-10-5 gapmers are 20 nucleotides in length, wherein the central gap segment is comprised of ten 2′-deoxynucleotides and is flanked on both sides (in the 5′ and 3′ directions) by wings comprising five nucleotides each. The 5-8-5 gapmers are 18 nucleotides in length, wherein the central gap segment is comprised of eight 2′-deoxynucleotides and is flanked on both sides (in the 5′ and 3′ directions) by wings comprising five nucleotides each. The 6-8-6 gapmers are 20 nucleotides in length, wherein the central gap segment is comprised of eight 2′-deoxynucleotides and is flanked on both sides (in the 5′ and 3′ directions) by wings comprising six nucleotides each. For each of the motifs (5-10-5, 5-8-5 and 6-8-6), each nucleotide in the 5′ wing segment and each nucleotide in the 3′ wing segment has a 2′-MOE modification. The internucleoside linkages throughout each gapmer are phosphorothioate (P═S) linkages. All cytidine residues throughout each gapmer are 5-methylcytidines. “Human Target start site” indicates the 5′-most nucleotide to which the gapmer is targeted in the human sequence. “Human Target stop site” indicates the 3′-most nucleotide to which the gapmer is targeted in the human sequence. Each gapmer listed in Table 51 is targeted to SEQ ID NO: 1 (GENBANK Accession No. NM_000128.3). Each gapmer is Table 51 is also fully cross-reactive with the rhesus monkey Factor XI gene sequence, designated herein as SEQ ID NO: 274 (exons 1-15 GENBANK Accession No. NW—001118167.1). ‘Rhesus monkey start site’ indicates the 5′-most nucleotide to which the gapmer is targeted in the rhesus monkey sequence. ‘Rhesus monkey stop site’ indicates the 3′-most nucleotide to which the gapmer is targeted to the rhesus monkey sequence.

Factor XI protein = test: Cynomolgus monkeys: plasma Factor XI protein ELISA (Example 29); assay type: in vivo; conditions: escalating doses 5, 10, 25 mg/kg s.c.
Description: (§1) Groups, each consisting of two male and three female monkeys, were injected subcutaneously with ISIS 416838, ISIS 416850, ISIS 416858, ISIS 416864, or ISIS 417002 in escalating doses. Antisense oligonucleotide was administered to the monkeys at 5 mg/kg three times per a week for week 1; 5 mg/kg twice per week for weeks 2 and 3; 10 mg/kg three times per week for week 4; 10 mg/kg twice per week for weeks 5 and 6; 25 mg/kg three times per week for week 7; and 25 mg/kg twice per week for weeks 8, 9, 10, 11, and 12. One control group, consisting of two male and three female monkeys, was injected subcutaneously with PBS according to the same dosing regimen. An additional experimental group, consisting of two male and three female monkeys, was injected subcutaneously with ISIS 416850 in a chronic, lower dose regimen. Antisense oligonucleotide was administered to the monkeys at 5 mg/kg three times per week for week 1; 5 mg/kg twice per week for week 2 and 3; 10 mg/kg three times per week for week 4; and 10 mg/kg twice per week for weeks 5 to 12. Body weights were measured weekly. Blood samples were collected 14 days and 5 days before the start of treatment and subsequently once per week for Factor XI protein activity analysis in plasma and measurement of various hematologic factors. On day 85, the monkeys were euthanized by exsanguination while under deep anesthesia, and organs harvested for further analysis.
Plasma samples from all monkey groups taken on different days were analyzed by a sandwich-style ELISA assay (Affinity Biologicals Inc.) using an affinity-purified polyclonal anti-Factor XI antibody as the capture antibody and a peroxidase-conjugated polyclonal anti-Factor XI antibody as the detecting antibody. Monkey plasma was diluted 1:50 for the assay. Peroxidase activity was expressed by incubation with the substrate o-phenylenediamine. The color produced was quantified using a microplate reader at 490 nm and was considered to be proportional to the concentration of Factor XI in the samples.
The results are presented in Table 122, expressed as percentage reduction relative to that of the PBS control.

[1] = Cynomolgus monkeys: body and organ weights (Example 29); assay type: in vivo; conditions: for Kidney weight / Liver weight / Spleen weight: after euthanasia; for Body weight: escalating doses 5, 10, 25 mg/kg s.c.
Description: as §1
Body weights were taken once weekly throughout the dosing regimen. […] Organ weights were taken after the animals were euthanized and livers, kidneys and spleens were harvested and weighed. […] The ISIS oligonucleotide, ISIS 416850, given with the chronic dose regimen is distinguished from the other oligonucleotides with an asterisk (*).

[2] = Cynomolgus monkeys: hematology assays (Example 29); assay type: in vivo
Description: as §1
The ISIS oligonucleotide, ISIS 416850, given with the chronic dose regimen is distinguished from the other oligonucleotides with an asterisk (*).

445493 (antisense eA*e[5mC]*eA*eG*eT*eT*dT*d[5mC]*dT*dG*dG*d[5mC]*dA*dG*eG*e[5mC]*e[5mC]*eT*e[5mC]*eG) [compound 445493]
Percent inhibition of human Factor XI mRNA levels (human Factor XI mRNA): 69%

445494 (antisense CACAGTTTCTGGCAGGCCTC; 6-8-6 gapmer chemistry, chemistry not fully specified) [compound 445494]
Percent inhibition of human Factor XI mRNA levels (human Factor XI mRNA): 85%

445495 (antisense GCACAGTTTCTGGCAGGCCT; 6-8-6 gapmer chemistry, chemistry not fully specified) [compound 445495]
Percent inhibition of human Factor XI mRNA levels (human Factor XI mRNA): 89%

445496 (antisense TGCACAGTTTCTGGCAGGCC; 6-8-6 gapmer chemistry, chemistry not fully specified) [compound 445496]
Percent inhibition of human Factor XI mRNA levels (human Factor XI mRNA): 87%

445497 (antisense GTGCACAGTTTCTGGCAGGC; 6-8-6 gapmer chemistry, chemistry not fully specified) [compound 445497]
Percent inhibition of human Factor XI mRNA levels (human Factor XI mRNA): 81%

445499 (antisense TGGTGCACAGTTTCTGGCAG; 6-8-6 gapmer chemistry, chemistry not fully specified) [compound 445499]
Percent inhibition of human Factor XI mRNA levels (human Factor XI mRNA): 75%

445500 (antisense TTGGTGCACAGTTTCTGGCA; 6-8-6 gapmer chemistry, chemistry not fully specified) [compound 445500]
Percent inhibition of human Factor XI mRNA levels (human Factor XI mRNA): 81%

445501 (antisense ATTGGTGCACAGTTTCTGGC; 6-8-6 gapmer chemistry, chemistry not fully specified) [compound 445501]
Percent inhibition of human Factor XI mRNA levels (human Factor XI mRNA): 83%

445502 (antisense e[5mC]*eA*eT*eT*eG*eG*dT*dG*d[5mC]*dA*d[5mC]*dA*dG*dT*eT*eT*e[5mC]*eT*eG*eG) [compound 445502]
Percent inhibition of human Factor XI mRNA levels (human Factor XI mRNA): 83%

445506 (antisense eA*e[5mC]*eG*eG*e[5mC]*eA*dT*dT*dG*dG*dT*dG*d[5mC]*dA*e[5mC]*eA*eG*eT*eT*eT) [compound 445506]
Percent inhibition of human Factor XI mRNA levels (human Factor XI mRNA): 86%

ISIS 416864: gapmer of Table 8 (antisense eG*eG*e[5mC]*eA*eG*d[5mC]*dG*dG*dA*d[5mC]*dG*dG*d[5mC]*dA*dT*eT*eG*eG*eT*eG)
Inhibition of Factor XI protein relative to the PBS control (Factor XI protein; day 8): 7%
Inhibition of Factor XI protein relative to the PBS control (Factor XI protein; day 15): 9%
Inhibition of Factor XI protein relative to the PBS control (Factor XI protein; day 22): 7%
Inhibition of Factor XI protein relative to the PBS control (Factor XI protein; day 29): 10%
Inhibition of Factor XI protein relative to the PBS control (Factor XI protein; day 36): 9%
Inhibition of Factor XI protein relative to the PBS control (Factor XI protein; day 43): 9%
Inhibition of Factor XI protein relative to the PBS control (Factor XI protein; day 50): 10%
Inhibition of Factor XI protein relative to the PBS control (Factor XI protein; day 57): 7%
Inhibition of Factor XI protein relative to the PBS control (Factor XI protein; day 64): 5%
Inhibition of Factor XI protein relative to the PBS control (Factor XI protein; day 71): 10%
Inhibition of Factor XI protein relative to the PBS control (Factor XI protein; day 78): 9%
Inhibition of Factor XI protein relative to the PBS control (Factor XI protein; day 85): 8%
Inhibition of Factor XI protein relative to the PBS control (Factor XI protein; day −5 (before treatment)): 5%
Inhibition of Factor XI protein relative to the PBS control (Factor XI protein; day −14 (before treatment)): 0%
Kidney weight [1]: 14 g
Liver weight [1]: 53 g
Spleen weight [1]: 5 g
Body weight ([1]; day 1): 2890 g
Body weight ([1]; day 8): 2784 g
Body weight ([1]; day 15): 2817 g
Body weight ([1]; day 22): 2857 g
Body weight ([1]; day 29): 2863 g
Body weight ([1]; day 36): 3327 g
Body weight ([1]; day 43): 3355 g
Body weight ([1]; day 50): 3408 g
Body weight ([1]; day 57): 3387 g
Body weight ([1]; day 64): 3384 g
Body weight ([1]; day 71): 2942 g
Body weight ([1]; day 78): 2822 g
platelet count ([2]; day 8): 438000 µL⁻¹
platelet count ([2]; day 15): 439000 µL⁻¹
platelet count ([2]; day 22): 364000 µL⁻¹
platelet count ([2]; day 29): 397000 µL⁻¹
platelet count ([2]; day 36): 428000 µL⁻¹
platelet count ([2]; day 43): 351000 µL⁻¹
platelet count ([2]; day 50): 419000 µL⁻¹
platelet count ([2]; day 57): 409000 µL⁻¹
platelet count ([2]; day 64): 383000 µL⁻¹
platelet count ([2]; day 71): 394000 µL⁻¹
platelet count ([2]; day 78): 366000 µL⁻¹
platelet count ([2]; day 85): 387000 µL⁻¹
platelet count ([2]; day −5): 456000 µL⁻¹
platelet count ([2]; day −14): 434000 µL⁻¹

ISIS 417002: gapmer of Table 8 (antisense eG*eG*dT*dG*d[5mC]*dA*d[5mC]*dA*dG*dT*dT*dT*d[5mC]*dT*dG*eG*e[5mC]*eA*eG*eG)
Inhibition of Factor XI protein relative to the PBS control (Factor XI protein; day 8): 0%
Inhibition of Factor XI protein relative to the PBS control (Factor XI protein; day 15): 4%
Inhibition of Factor XI protein relative to the PBS control (Factor XI protein; day 22): 2%
Inhibition of Factor XI protein relative to the PBS control (Factor XI protein; day 29): 8%
Inhibition of Factor XI protein relative to the PBS control (Factor XI protein; day 36): 8%
Inhibition of Factor XI protein relative to the PBS control (Factor XI protein; day 43): 9%
Inhibition of Factor XI protein relative to the PBS control (Factor XI protein; day 50): 13%
Inhibition of Factor XI protein relative to the PBS control (Factor XI protein; day 57): 24%
Inhibition of Factor XI protein relative to the PBS control (Factor XI protein; day 64): 26%
Inhibition of Factor XI protein relative to the PBS control (Factor XI protein; day 71): 30%
Inhibition of Factor XI protein relative to the PBS control (Factor XI protein; day 78): 22%
Inhibition of Factor XI protein relative to the PBS control (Factor XI protein; day 85): 23%
Inhibition of Factor XI protein relative to the PBS control (Factor XI protein; day −5 (before treatment)): 0%
Inhibition of Factor XI protein relative to the PBS control (Factor XI protein; day −14 (before treatment)): 0%
Kidney weight [1]: 15 g
Liver weight [1]: 51 g
Spleen weight [1]: 5 g
Body weight ([1]; day 1): 2640 g
Body weight ([1]; day 8): 2523 g
Body weight ([1]; day 15): 2571 g
Body weight ([1]; day 22): 2617 g
Body weight ([1]; day 29): 2622 g
Body weight ([1]; day 36): 2631 g
Body weight ([1]; day 43): 2630 g
Body weight ([1]; day 50): 2652 g
Body weight ([1]; day 57): 2654 g
Body weight ([1]; day 64): 2598 g
Body weight ([1]; day 71): 2727 g
Body weight ([1]; day 78): 2570 g
platelet count ([2]; day 8): 435000 µL⁻¹
platelet count ([2]; day 15): 410000 µL⁻¹
platelet count ([2]; day 22): 377000 µL⁻¹
platelet count ([2]; day 29): 410000 µL⁻¹
platelet count ([2]; day 36): 415000 µL⁻¹
platelet count ([2]; day 43): 393000 µL⁻¹
platelet count ([2]; day 50): 389000 µL⁻¹
platelet count ([2]; day 57): 403000 µL⁻¹
platelet count ([2]; day 64): 436000 µL⁻¹
platelet count ([2]; day 71): 490000 µL⁻¹
platelet count ([2]; day 78): 432000 µL⁻¹
platelet count ([2]; day 85): 418000 µL⁻¹
platelet count ([2]; day −5): 466000 µL⁻¹
platelet count ([2]; day −14): 442000 µL⁻¹
